This note sets out measurements from patent publication US11518758B2, “Heteroarylaminopyrimidine amide autophagy inhibitors and methods of use thereof” (Deciphera Pharmaceuticals, LLC, priority 2019, dated 2022).

One test concerns the target T1, ULK1 kinase (Homo sapiens, UniProt O75385).
T1 construct: purchased Eurofins 14-959
T1 sequence (O75385 with tags, fused parts or gaps): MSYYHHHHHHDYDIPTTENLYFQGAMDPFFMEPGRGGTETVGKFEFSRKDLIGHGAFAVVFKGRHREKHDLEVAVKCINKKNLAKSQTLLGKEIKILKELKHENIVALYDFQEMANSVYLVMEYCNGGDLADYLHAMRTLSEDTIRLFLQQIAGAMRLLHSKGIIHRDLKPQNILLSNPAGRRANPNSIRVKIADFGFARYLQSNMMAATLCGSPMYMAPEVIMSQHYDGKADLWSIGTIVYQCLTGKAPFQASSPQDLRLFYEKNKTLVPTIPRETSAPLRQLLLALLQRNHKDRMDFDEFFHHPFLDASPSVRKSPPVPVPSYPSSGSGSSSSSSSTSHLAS
The test can be described thus: Biochemical assay for ULK1.2 (coupled pyruvate kinase/lactate dehydrogenase assay). The following applies: 19 nM ULK1 (Eurofins), myelin basic protein, 1 mM ATP. The procedure:
Example 174. Biochemical Assay for ULK1.2
(§1) Activity of ULK1 kinase was determined spectroscopically using a coupled pyruvate kinase/lactate dehydrogenase assay that continuously monitors the ATP hydrolysis-dependent oxidation of NADH (e.g., Schindler et al. Science (2000) 289: 1938-1942). Assays were conducted in 384-well plates (100 uL final volume) using 19 nM ULK1 (Eurofins CAT #14-959), 0.25 mg/mL myelin basic protein, 1.5 units pyruvate kinase, 2.1 units lactate dehydrogenase, 1 mM phosphoenol pyruvate, 0.28 mM NADH and 1 mM ATP in assay buffer (100 mM Tris, pH 7.5, 15 mM MgCl2, 0.5 mM DTT, 0.1% octyl-glucoside, 0.002% (w/v) BSA, and 0.002% Triton X-100). Inhibition of ULK1 was measured by adding serial diluted test compound (final assay concentration of 1% DMSO). A decrease in absorption at 340 nm was monitored continuously for 6 hours at 30° C. on a multi-mode microplate reader (BioTek). The reaction rate was calculated using the 2-3 h time frame. The reaction rate at each concentration of compound was converted to percent inhibition using controls (i.e. reaction with no test compound and reaction with a known inhibitor) and IC50 values were calculated by fitting a four-parameter sigmoidal curve to the data using Prism (GraphPad software).

In another test the target is T2, ULK2 kinase (Homo sapiens, UniProt Q8IYT8).
T2 construct: purchased Eurofins 14-772
Put plainly: Biochemical assay for ULK2 (coupled pyruvate kinase/lactate dehydrogenase assay). The following applies: 9.7 nM ULK2 (Eurofins), myelin basic protein, 1 mM ATP; read-out: ULK2.2. As for the experimental part:
Example 176. Biochemical Assay for ULK2
as §1, with “of ULK2” for “of ULK1”, “using 9.7” for “using 19”, “nM ULK2” for “nM ULK1”, “CAT #14-772),” for “CAT #14-959),”

For another test, the target named is T3, LRRK2 kinase (Homo sapiens, UniProt Q5S007).
T3 construct: purchased Thermo Fisher
The test can be described thus: Biochemical assay for LRRK2 (coupled pyruvate kinase/lactate dehydrogenase assay). The note with it: 26.4 nM LRRK2 (residues 970-2528), 0.1 mM peptide substrate, 1 mM ATP. As for the experimental part: Example 182. Biochemical Assay for LRRK2 (SEQ. ID NO. 4)
Activity of LRRK2 kinase was determined spectroscopically using a coupled pyruvate kinase/lactate dehydrogenase assay that continuously monitors the ATP hydrolysis-dependent oxidation of NADH (e.g., Schindler et al. Science (2000) 289: 1938-1942). Assays were conducted in 384-well plates (100 uL final volume) using 26.4 nM LRRK2 (Thermo Fisher), 0.1 mM peptide substrate (RLGRDKYKTLRQIRQ (SEQ ID NO: 6)), 1.5 units pyruvate kinase, 2.1 units lactate dehydrogenase, 1 mM phosphoenol pyruvate, 0.28 mM NADH and 1 mM ATP in assay buffer (100 mM Tris, pH 7.5, 15 mM MgCl2, 0.5 mM DTT, 0.004% (w/v) BSA, and 0.004% Triton X-100). Inhibition of LRRK2 was measured by adding serial diluted test compound (final assay concentration of 1% DMSO). A decrease in absorption at 340 nm was monitored continuously for 6 hours at 30° C. on a multi-mode microplate reader (BioTek). The reaction rate was calculated using the 2-3 h time frame. The reaction rate at each concentration of compound was converted to percent inhibition using controls (i.e. reaction with no test compound and reaction with a known inhibitor) and IC50 values were calculated using software routines in Prism (GraphPad software).

T3 sequence (Q5S007 with tags, fused parts or gaps): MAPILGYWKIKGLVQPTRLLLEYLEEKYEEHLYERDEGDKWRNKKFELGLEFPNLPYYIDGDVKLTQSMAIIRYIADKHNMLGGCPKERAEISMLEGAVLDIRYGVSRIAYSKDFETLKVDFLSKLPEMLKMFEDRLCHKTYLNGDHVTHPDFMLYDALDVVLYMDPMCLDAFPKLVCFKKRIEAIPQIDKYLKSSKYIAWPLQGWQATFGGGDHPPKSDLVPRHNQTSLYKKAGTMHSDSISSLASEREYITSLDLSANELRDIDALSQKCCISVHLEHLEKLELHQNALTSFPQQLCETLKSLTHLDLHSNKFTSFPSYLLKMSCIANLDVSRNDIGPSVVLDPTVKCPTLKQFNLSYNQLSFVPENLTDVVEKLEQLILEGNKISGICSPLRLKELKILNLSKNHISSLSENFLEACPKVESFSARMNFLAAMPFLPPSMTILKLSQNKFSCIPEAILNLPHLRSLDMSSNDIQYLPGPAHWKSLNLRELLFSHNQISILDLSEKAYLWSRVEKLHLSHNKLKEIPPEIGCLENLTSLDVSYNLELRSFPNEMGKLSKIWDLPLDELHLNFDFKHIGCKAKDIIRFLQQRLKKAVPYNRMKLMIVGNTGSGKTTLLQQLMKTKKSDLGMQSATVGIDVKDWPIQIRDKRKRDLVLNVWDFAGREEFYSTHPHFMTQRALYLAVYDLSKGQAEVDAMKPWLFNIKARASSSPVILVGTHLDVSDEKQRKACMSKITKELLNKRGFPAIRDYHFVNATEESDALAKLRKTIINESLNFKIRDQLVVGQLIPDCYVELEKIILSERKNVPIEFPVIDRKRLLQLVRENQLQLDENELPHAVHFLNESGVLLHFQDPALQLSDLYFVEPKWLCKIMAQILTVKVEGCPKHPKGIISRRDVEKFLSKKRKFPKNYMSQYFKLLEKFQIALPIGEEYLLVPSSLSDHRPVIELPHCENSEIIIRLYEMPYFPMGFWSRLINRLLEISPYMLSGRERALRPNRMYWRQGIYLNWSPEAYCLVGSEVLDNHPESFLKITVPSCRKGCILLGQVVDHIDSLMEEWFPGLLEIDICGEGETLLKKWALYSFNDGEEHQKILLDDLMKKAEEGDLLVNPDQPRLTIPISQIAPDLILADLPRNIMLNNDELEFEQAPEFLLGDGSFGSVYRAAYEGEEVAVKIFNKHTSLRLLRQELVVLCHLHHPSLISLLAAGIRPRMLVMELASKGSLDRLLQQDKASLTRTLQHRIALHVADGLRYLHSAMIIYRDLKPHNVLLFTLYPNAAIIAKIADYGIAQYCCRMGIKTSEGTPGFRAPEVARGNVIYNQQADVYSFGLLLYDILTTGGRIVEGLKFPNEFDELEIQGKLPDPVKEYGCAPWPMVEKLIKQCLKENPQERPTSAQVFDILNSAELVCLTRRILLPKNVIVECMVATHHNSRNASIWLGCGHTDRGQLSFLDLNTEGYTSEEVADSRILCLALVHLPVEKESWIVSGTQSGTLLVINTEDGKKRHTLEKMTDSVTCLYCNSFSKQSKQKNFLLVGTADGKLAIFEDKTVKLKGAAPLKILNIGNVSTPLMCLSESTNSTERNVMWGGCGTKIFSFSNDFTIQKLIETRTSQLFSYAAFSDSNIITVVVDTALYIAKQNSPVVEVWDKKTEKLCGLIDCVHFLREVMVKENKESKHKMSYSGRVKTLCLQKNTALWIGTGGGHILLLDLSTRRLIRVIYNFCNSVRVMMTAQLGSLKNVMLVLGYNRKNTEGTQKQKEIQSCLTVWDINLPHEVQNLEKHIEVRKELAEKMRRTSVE
T2 sequence (Q8IYT8 with tags, fused parts or gaps): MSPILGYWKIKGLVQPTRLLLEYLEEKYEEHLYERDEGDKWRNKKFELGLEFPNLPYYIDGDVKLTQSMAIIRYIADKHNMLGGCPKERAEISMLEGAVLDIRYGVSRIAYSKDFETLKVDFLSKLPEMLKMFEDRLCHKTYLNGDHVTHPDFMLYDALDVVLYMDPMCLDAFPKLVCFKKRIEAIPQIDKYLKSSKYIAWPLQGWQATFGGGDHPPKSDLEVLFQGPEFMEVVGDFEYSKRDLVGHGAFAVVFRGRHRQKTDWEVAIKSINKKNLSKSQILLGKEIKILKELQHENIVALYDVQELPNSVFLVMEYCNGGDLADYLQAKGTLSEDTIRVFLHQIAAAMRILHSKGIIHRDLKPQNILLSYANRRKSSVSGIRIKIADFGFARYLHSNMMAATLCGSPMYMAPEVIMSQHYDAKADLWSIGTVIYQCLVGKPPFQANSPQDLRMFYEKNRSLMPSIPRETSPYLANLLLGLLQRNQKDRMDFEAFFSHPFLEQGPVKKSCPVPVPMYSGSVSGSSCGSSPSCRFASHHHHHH

On to `CN1CCC(n2cc(Nc3ncc(Cl)c(NCCCN4CCCCC4=O)n3)cn2)CC1` [Example 2], for which the IC50 against ULK1 kinase is 1 to 25 nM; on ULK2 kinase, 25 to 100 nM.
For `Cc1nn(C2CN(CC(C)C)C2)cc1Nc1ncc(C(F)(F)F)c(NCCCN2CCCCC2=O)n1` [Example 23], the IC50 against ULK1 kinase was 25 to 100 nM; against LRRK2 kinase it was over 600 nM.
For the molecule `Cc1nn(CCN2CCOCC2)cc1Nc1ncc(C(F)(F)F)c(NCCCN2CCCCC2=O)n1` [Example 29], the results for the IC50 against ULK1 kinase and at LRRK2 kinase were over 500 nM and over 600 nM, respectively.
On to `Cc1nn(C2CCN(C3COC3)CC2)cc1Nc1ncc(C(F)(F)F)c(NCCCN2CCCCC2=O)n1` [Example 33], for which the IC50 against ULK1 kinase lay in the range of 100 to 500 nM; on LRRK2 kinase, 300 to 600 nM.
For the molecule `Cc1nn(C2CN(CC(C)C)C2)cc1Nc1ncc(Cl)c(NCCCN2CCCCC2=O)n1` [Example 38], the IC50 on ULK1 kinase is over 500 nM; against LRRK2 kinase it was over 600 nM.
For `CCc1nn(C2CCNCC2)cc1Nc1ncc(Cl)c(NCCCN2CCCCC2=O)n1` [Example 39] the same measures were 100 to 500 nM and over 600 nM.
For the molecule `CCc1nn(C2CCNCC2)cc1Nc1ncc(Br)c(NCCCN2CCCCC2=O)n1` [Example 41], the IC50 is 25 to 100 nM against ULK1 kinase and 100 to 500 nM at ULK2 kinase.
Consider `Cc1nn(CCN2CCCC2)cc1Nc1ncc(C(F)(F)F)c(NCCCN2CCCCC2=O)n1` [Example 45], for which the IC50 is 100 to 500 nM against ULK1 kinase and over 600 nM against LRRK2 kinase.
For `Cc1nn(C2CCN(C)CC2)cc1Nc1ncc(Cl)c(NCCCN2CCCCC2=O)n1` [Example 56] the same measures were 100 to 500 nM and over 600 nM.
On to `Cc1nn(CCN2CCCC2)cc1Nc1ncc(Br)c(NCCCN2CCCCC2=O)n1` [Example 62], for which the IC50 was 100 to 500 nM at ULK1 kinase and over 600 nM against LRRK2 kinase.
`CC1(C)CCC(=O)N1CCCNc1nc(Nc2cnn(C3CCN(C4CC4)CC3)c2)ncc1C1CC1` [Example 69]: the IC50 is over 500 nM against ULK1 kinase and over 600 nM on LRRK2 kinase.
Consider `CN1CCC(n2cc(Nc3ncc(C4CC4)c(NCCCN4CCCC4=O)n3)cn2)CC1` [Example 84], for which the values for the IC50 against ULK1 kinase and against LRRK2 kinase were 100 to 500 nM and over 600 nM, respectively.
On the same counts, the results for `Cc1nn(CCN2CCOCC2)cc1Nc1ncc(C(F)(F)F)c(NCCCN2CCCCCC2=O)n1` [Example 98] are 100 to 500 nM and 100 to 300 nM.
As to `Cc1nn(C2CCN(C(C)C)CC2)cc1Nc1ncc(Cl)c(NCCCN2CCCOCC2=O)n1` [Example 110], the IC50 was over 500 nM against ULK1 kinase and 100 to 300 nM against LRRK2 kinase.
On to `Cc1nn(C2CCN(C)CC2)cc1Nc1ncc(C2CC2)c(NCCCN2CCCOCC2=O)n1` [Example 111], for which the IC50 was over 500 nM at ULK1 kinase and over 600 nM against LRRK2 kinase.
Regarding `Cc1nn(C2CCN(C)CC2)cc1Nc1ncc(Cl)c(NCCCN2CCOCCC2=O)n1` [Example 132], the figures for the IC50 on ULK1 kinase and at LRRK2 kinase were 100 to 500 nM and over 600 nM, respectively.
For `Cc1nn(CCCN2CCOCC2)cc1Nc1ncc(Cl)c(NCCCN2CCOCCC2=O)n1` [Example 135] the same measures were over 500 nM and over 600 nM.
In the case of `CC1CCC(=O)N1CCCNc1nc(Nc2cnn(C3CCN(C4CC4)CC3)c2)ncc1Cl` (stereo not shown) [Example 150], the IC50 on ULK1 kinase is 100 to 500 nM; against LRRK2 kinase, 100 to 300 nM.
For `CC1(C)CCN(CCCNc2nc(Nc3cnn(C4CCN(C5CC5)CC4)c3)ncc2Br)C1=O` [Example 153], the IC50 was in the range of 100 to 500 nM at ULK1 kinase and 300 to 600 nM on LRRK2 kinase.
On the same counts, the results for `C[C@@H](CCNc1nc(Nc2cnn(C3CCN(C4CC4)CC3)c2)ncc1Cl)N1CCCC1=O` [Example 156] are over 500 nM and 300 to 600 nM.
Consider `C[C@@H](CCNc1nc(Nc2cnn(C3CCN(C)CC3)c2)ncc1Cl)N1CCCC1=O` [Example 157], for which the IC50 was over 500 nM at ULK1 kinase and over 600 nM on LRRK2 kinase.
On the same counts, the results for `CC(C)CN1CC(n2cc(Nc3ncc(Cl)c(NCCCN4CCCC4=O)n3)cn2)C1` [Example 159] are over 500 nM and over 600 nM.
In the case of `Cc1nn([C@@H]2CCNC2)cc1Nc1ncc(Br)c(NCCCN2CCCC2=O)n1` [Example 164], the IC50 against ULK1 kinase lay in the range of 100 to 500 nM; at LRRK2 kinase, 300 to 600 nM.
`CC(C)CN1CC(n2cc(Nc3ncc(Br)c(NCCCN4CCCC4=O)n3)cn2)C1` [Example 165]: the IC50 lay in the range of 100 to 500 nM against ULK1 kinase and 300 to 600 nM against LRRK2 kinase.
For `CCN1CC[C@H](n2cc(Nc3ncc(C(F)(F)F)c(NCCCN4CCCC4=O)n3)c(C)n2)C1` [Example 168] the same measures were 100 to 500 nM and over 600 nM.
On the same counts, the results for `CC(C)CN1CC(n2cc(Nc3ncc(C(F)(F)F)c(NCCCN4CCCC4=O)n3)cn2)C1` [Example 170] are 100 to 500 nM and 300 to 600 nM.
